Assays:
Type in all cases: in vivo
[1] = test system: ABUTH, Velvetleaf, Abutilon theophrasti, Medic.; experiment: Postemergence herbicidal evaluation (Example 147); details: rating scale 0-9, two to three weeks after treatment
In short: (§1)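 Plants at about two weeks from sowing received a foliar spray of test compound equivalent to roughly 0.016 to 0.032 kg per hectare. The carrier was 80/20 acetone/water containing 1.0% methylated seed oil. Injury was scored on a 0-9 visual scale two to three weeks later.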

[2] = test system: ALOMY, Blackgrass, Alopecurus myosuroides; experiment: Postemergence herbicidal evaluation (Example 147); details: rating scale 0-9, two to three weeks after treatment
In short: as §1

[3] = test system: AMBEL, Ragweed, Common, Ambrosia artemiisifolia, L.; experiment: Postemergence herbicidal evaluation (Example 147); details: rating scale 0-9, two to three weeks after treatment
In short: as §1

[4] = test system: CHEAL, Lambsquarters, Chenopodium album, L. Common; experiment: Postemergence herbicidal evaluation (Example 147); details: rating scale 0-9, two to three weeks after treatment
In short: as §1

[5] = test system: DIGSA, Crabgrass, (Hairy) L, Digitaria sanguinalis, (L)Scop; experiment: Postemergence herbicidal evaluation (Example 147); details: rating scale 0-9, two to three weeks after treatment
In short: as §1

[6] = test system: ECHCG, Barnyardgrass, Echinochloa crusgalli, (L.)Beau; experiment: Postemergence herbicidal evaluation (Example 147); details: rating scale 0-9, two to three weeks after treatment
In short: as §1

[7] = test system: GLXMA, Soybean, Glycine max, (L.) Merr.; experiment: Postemergence herbicidal evaluation (Example 147); details: rating scale 0-9, two to three weeks after treatment
In short: as §1

[8] = test system: IPOHE, Morningglory, Ivyleaf, Ipomoea hederacea, (L)Jacq.; experiment: Postemergence herbicidal evaluation (Example 147); details: rating scale 0-9, two to three weeks after treatment
In short: as §1

[9] = test system: SETVI, Green foxtail, Setaria viridis, (L.)Beau; experiment: Postemergence herbicidal evaluation (Example 147); details: rating scale 0-9, two to three weeks after treatment
In short: as §1

[10] = test system: TRZAW, Winter wheat, Tritium Aestivum, L. (Winter); experiment: Postemergence herbicidal evaluation (Example 147); details: rating scale 0-9, two to three weeks after treatment
In short: as §1

[11] = test system: XANST, Cocklebur, Xanthium strumariam; experiment: Postemergence herbicidal evaluation (Example 147); details: rating scale 0-9, two to three weeks after treatment
In short: as §1

[12] = test system: ZEAMX, Field corn, Zea mays L.; experiment: Postemergence herbicidal evaluation (Example 147); details: rating scale 0-9, two to three weeks after treatment
In short: as §1

[13] = test system: ABUTH, Velvetleaf, Abutilon theophrasti, Medic.; experiment: Preemergence herbicidal evaluation (Example 148); details: rating scale 0-9, two to four weeks after treatment
In short: (§2)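 Sow seed–soil mix onto ~1 in soil; spray aqueous acetone compound solution (~0.125–0.250 kg/ha equivalent); keep on greenhouse benches under standard watering; score injury visually after 2–4 weeks.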

[14] = test system: ALOMY, Blackgrass, Alopecurus myosuroides; experiment: Preemergence herbicidal evaluation (Example 148); details: rating scale 0-9, two to four weeks after treatment
In short: as §2

[15] = test system: AMBEL, Ragweed, Common, Ambrosia artemiisifolia, L.; experiment: Preemergence herbicidal evaluation (Example 148); details: rating scale 0-9, two to four weeks after treatment
In short: as §2

[16] = test system: CHEAL, Lambsquarters, Chenopodium album, L. Common; experiment: Preemergence herbicidal evaluation (Example 148); details: rating scale 0-9, two to four weeks after treatment
In short: as §2

[17] = test system: DIGSA, Crabgrass, (Hairy) L, Digitaria sanguinalis, (L)Scop; experiment: Preemergence herbicidal evaluation (Example 148); details: rating scale 0-9, two to four weeks after treatment
In short: as §2

[18] = test system: ECHCG, Barnyardgrass, Echinochloa crusgalli, (L.)Beau; experiment: Preemergence herbicidal evaluation (Example 148); details: rating scale 0-9, two to four weeks after treatment
In short: as §2

[19] = test system: GLXMA, Soybean, Glycine max, (L.) Merr.; experiment: Preemergence herbicidal evaluation (Example 148); details: rating scale 0-9, two to four weeks after treatment
In short: as §2

[20] = test system: IPOHE, Morningglory, Ivyleaf, Ipomoea hederacea, (L)Jacq.; experiment: Preemergence herbicidal evaluation (Example 148); details: rating scale 0-9, two to four weeks after treatment
In short: as §2

[21] = test system: SETVI, Green foxtail, Setaria viridis, (L.)Beau; experiment: Preemergence herbicidal evaluation (Example 148); details: rating scale 0-9, two to four weeks after treatment
In short: as §2

[22] = test system: TRZAW, Winter wheat, Tritium Aestivum, L. (Winter); experiment: Preemergence herbicidal evaluation (Example 148); details: rating scale 0-9, two to four weeks after treatment
In short: as §2

[23] = test system: XANST, Cocklebur, Xanthium strumariam; experiment: Preemergence herbicidal evaluation (Example 148); details: rating scale 0-9, two to four weeks after treatment
In short: as §2

[24] = test system: ZEAMX, Field corn, Zea mays L.; experiment: Preemergence herbicidal evaluation (Example 148); details: rating scale 0-9, two to four weeks after treatment
In short: as §2

Substance: 3-(5-(N,N-Dimethyl)sulfamoylcarboxamido-4-chloro-2-fluorophenyl)-1,2,3,4-dihydro-6-trifluoromethylpyrimidin-2,4-dione [Example 54]
- Postemergence herbicidal rating ABUTH ([1]; rate 0.016 kg/ha): 9.0
- Postemergence herbicidal rating ABUTH ([1]; rate 0.032 kg/ha): 9.0
- Postemergence herbicidal rating ALMOY ([2]; rate 0.016 kg/ha): 2.0
- Postemergence herbicidal rating ALMOY ([2]; rate 0.032 kg/ha): 2.0
- Postemergence herbicidal rating AMBEL ([3]; rate 0.016 kg/ha): 9.0
- Postemergence herbicidal rating AMBEL ([3]; rate 0.032 kg/ha): 9.0
- Postemergence herbicidal rating CHEAL ([4]; rate 0.016 kg/ha): 9.0
- Postemergence herbicidal rating CHEAL ([4]; rate 0.032 kg/ha): 9.0
- Postemergence herbicidal rating DIGSA ([5]; rate 0.016 kg/ha): 5.0
- Postemergence herbicidal rating DIGSA ([5]; rate 0.032 kg/ha): 6.0
- Postemergence herbicidal rating ECHCG ([6]; rate 0.016 kg/ha): 6.0
- Postemergence herbicidal rating ECHCG ([6]; rate 0.032 kg/ha): 8.0
- Postemergence herbicidal rating GLXMA ([7]; rate 0.016 kg/ha): 8.0
- Postemergence herbicidal rating GLXMA ([7]; rate 0.032 kg/ha): 8.5
- Postemergence herbicidal rating IPOHE ([8]; rate 0.016 kg/ha): 9.0
- Postemergence herbicidal rating IPOHE ([8]; rate 0.032 kg/ha): 9.0
- Postemergence herbicidal rating SETVI ([9]; rate 0.016 kg/ha): 7.0
- Postemergence herbicidal rating SETVI ([9]; rate 0.032 kg/ha): 7.0
- Postemergence herbicidal rating TRZAW ([10]; rate 0.016 kg/ha): 5.5
- Postemergence herbicidal rating TRZAW ([10]; rate 0.032 kg/ha): 6.0
- Postemergence herbicidal rating XANST ([11]; rate 0.016 kg/ha): 9.0
- Postemergence herbicidal rating XANST ([11]; rate 0.032 kg/ha): 9.0
- Postemergence herbicidal rating ZEAMX ([12]; rate 0.016 kg/ha): 6.5
- Postemergence herbicidal rating ZEAMX ([12]; rate 0.032 kg/ha): 7.5
- Preemergence herbicidal rating ABUTH ([13]; rate 0.125 kg/ha): 9.0
- Preemergence herbicidal rating ABUTH ([13]; rate 0.25 kg/ha): 9.0
- Preemergence herbicidal rating ALMOY ([14]; rate 0.125 kg/ha): 0.0
- Preemergence herbicidal rating ALMOY ([14]; rate 0.25 kg/ha): 0.0
- Preemergence herbicidal rating AMBEL ([15]; rate 0.125 kg/ha): 7.0
- Preemergence herbicidal rating AMBEL ([15]; rate 0.25 kg/ha): 8.0
- Preemergence herbicidal rating CHEAL ([16]; rate 0.125 kg/ha): 9.0
- Preemergence herbicidal rating CHEAL ([16]; rate 0.25 kg/ha): 9.0
- Preemergence herbicidal rating DIGSA ([17]; rate 0.125 kg/ha): 4.0
- Preemergence herbicidal rating DIGSA ([17]; rate 0.25 kg/ha): 6.0
- Preemergence herbicidal rating ECHCG ([18]; rate 0.125 kg/ha): 3.0
- Preemergence herbicidal rating ECHCG ([18]; rate 0.25 kg/ha): 3.0
- Preemergence herbicidal rating GLXMA ([19]; rate 0.125 kg/ha): 0.0
- Preemergence herbicidal rating GLXMA ([19]; rate 0.25 kg/ha): 0.0
- Preemergence herbicidal rating IPOHE ([20]; rate 0.125 kg/ha): 0.0
- Preemergence herbicidal rating IPOHE ([20]; rate 0.25 kg/ha): 1.0
- Preemergence herbicidal rating SETVI ([21]; rate 0.125 kg/ha): 2.0
- Preemergence herbicidal rating SETVI ([21]; rate 0.25 kg/ha): 3.0
- Preemergence herbicidal rating TRZAW ([22]; rate 0.125 kg/ha): 0.0
- Preemergence herbicidal rating TRZAW ([22]; rate 0.25 kg/ha): 0.0
- Preemergence herbicidal rating XANST ([23]; rate 0.125 kg/ha): 1.0
- Preemergence herbicidal rating XANST ([23]; rate 0.25 kg/ha): 3.0
- Preemergence herbicidal rating ZEAMX ([24]; rate 0.125 kg/ha): 0.0
- Preemergence herbicidal rating ZEAMX ([24]; rate 0.25 kg/ha): 0.0

From patent publication US6689773B2, “Uracil substituted phenyl sulfamoyl carboxamides” (BASF Aktiengesellschaft, priority 2000, dated 2004)
